Reference: ChEMBL document CHEMBL1821608, “Fragment library screening reveals remarkable similarities between the G protein-coupled receptor histamine H₄ and the ion channel serotonin 5-HT₃A” (Bioorg Med Chem Lett, 2011)
The source made the active and inactive calls. No cut-off for these calls is given here.

Experiments:
[1] = target: T1, 5-hydroxytryptamine receptor 3A (Homo sapiens) (UniProt P46098); assay: Displacement of [3H]granisetron from human 5-HT3AR expressed in HEK293 cells after 24 hrs by liquid scintillation counting; format: cell-based
T1 sequence (whole entry): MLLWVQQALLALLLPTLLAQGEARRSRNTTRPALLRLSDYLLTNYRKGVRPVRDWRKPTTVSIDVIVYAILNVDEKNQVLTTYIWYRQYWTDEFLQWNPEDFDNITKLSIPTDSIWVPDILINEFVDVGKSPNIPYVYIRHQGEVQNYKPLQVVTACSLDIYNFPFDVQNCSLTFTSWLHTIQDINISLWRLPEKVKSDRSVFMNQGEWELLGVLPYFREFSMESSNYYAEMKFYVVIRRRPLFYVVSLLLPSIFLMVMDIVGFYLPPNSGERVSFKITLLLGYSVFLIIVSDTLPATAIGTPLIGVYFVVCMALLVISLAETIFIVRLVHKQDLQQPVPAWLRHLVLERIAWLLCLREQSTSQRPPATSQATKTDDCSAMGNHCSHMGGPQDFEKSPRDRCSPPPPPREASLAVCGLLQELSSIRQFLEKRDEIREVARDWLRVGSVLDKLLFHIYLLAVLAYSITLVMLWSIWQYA

Histamine H4 receptor [2] = target: T2, Histamine H4 receptor (Homo sapiens, UniProt Q9H3N8); assay: Displacement of [3H]histamine from human H4R receptor expressed in HEK293 cells at 10 uM after 1.5 hrs by liquid scintillation counting; format: cell-based
Histamine H4 receptor [3] = target: T2, Histamine H4 receptor; assay: Binding affinity to H4R receptor
[4] = target: T1, 5-hydroxytryptamine receptor 3A (Homo sapiens); assay: Inhibition of 5-HT3AR at 10 uM

pKi [1] | pKi (Histamine H4 receptor [2]) | SMILES | also measured
inactive | – | CN1CCN(c2cc(-c3ccccc3)ncn2)CC1 | –
– | inactive | Nc1ccc2cc3ccccc3nc2c1 | –
inactive | – | c1ccc(CNCCc2c[nH]cn2)cc1 | –
– | – | Nc1nc2c(c(N3CCNCC3)n1)CCC1=C2[C@@H]2CCCC[C@@H]2O1 | Ki (Histamine H4 receptor [3]): 79.4 nM
– | – | Nc1nc2c(c(N3CCNCC3)n1)CCCc1ccccc1-2 | inhibition [4]: 98%
– | inactive | N=C(N)NCCCc1ccccc1 | –

SMILES | pKi [1] | pKi (Histamine H4 receptor [2]) | also measured
c1cncc(Cc2c[nH]cn2)c1 | inactive | – | –
Clc1ccc(C2CCNC2)cc1 (stereo not drawn) | – | inactive | –
